Experiments:
HCT116 = experiment: FMCA (Fluorometric Microculture Cytotoxicity Assay) cytotoxicity; assay type: cell-based; details: for IC50: 72 hours of continuous compound exposure
Experimental: FIGS. 1a to 1o are diagrams illustrating induction of dose-dependent cytotoxicity after 72 hours of continuous compound exposure to the reporter cell line HCT-116 by embodiments of the compound of the invention, as measured FMCA (Fluorometric Microculture Cytotoxicity Assay), as well as absence of such induction by structurally related compounds not comprised by the invention. Treated cells were compared to untreated controls (survival index);
Determination of cell apoptosis and viability. For determination of apoptosis parental HCT-116 p53+/+ cells are treated with the increasing doses of the compound of the invention for 24 h. […] HCT-116 cells are seeded in 96-well microtiter plates at 10,000 cells per well and incubated overnight. Cells are treated with indicated drug for 24 h. At the end of the incubation period, NP40 is added to the tissue culture medium to 0.1% and 25 μl of the content of each well was assayed using the M30-Apoptosense® ELISA as previously described (31). Cell viability is determined by measuring acid phosphatase activity or using the FMCA method (32). For the acid phosphatase activity cells are seeded at 5000 cells per well in 96-well culture plates and incubated for 12 h at 37° C. Compounds are added to the cells in growth media and incubated for 72 h at 37° C. Cells are washed with 200 μl warm PBS. 100 μl of para-nitrophenyl phosphate (pNPP, 2 mg/ml) in Na acetate buffer pH 5 (NaAc 0.1 M, 0.1% Triton-X-100) is added per well. Cells are incubated for 2 h after which reaction was stopped by addition of 1N NaOH. Absorbance is measured at 405 nm. The dose-dependent cytotoxicity of a number of embodiments of the compound of the invention is illustrated in FIGS. 1a-1o.
For the FMCA assay cells are seeded in the drug-prepared 384-well plates using the pipetting robot Precision 2000 (Bio-Tek Instruments Inc., Winooski, Vt.). The plates are incubated for 72 h and then transferred to an integrated HTS SAIGAN Core System consisting of an ORCA robot (Beckman Coulter) with CO2 incubator (Cytomat 2C, Kendro, Sollentuna, Sweden), dispenser module (Multidrop 384, Titertek, Huntsville, Ala.), washer module (ELx 405, Bio-Tek Instruments Inc), delidding station, plate hotels, barcode reader (Beckman Coulter), liquid handler (Biomek 2000, Beckman Coulter) and a multipurpose reader (FLUOstar Optima, BMG Labtech GmbH, Offenburg, Germany) for automated FMCA. Survival index (SI) is defined as the fluorescence of test wells in percentage of controls with blank values subtracted.
FIGS. 3b, 3d, 3f are diagrams illustrating the cytotoxicity of compounds of the invention nos. 1546, 1547, and 1570 with a 7-membered ring moiety in comparison to structurally corresponding compounds not comprised by the invention with a 6-membered ring moiety. Their induction of dose-dependent cytotoxicity was determined after 72 hours of continuous compound exposure to the reporter cell line HCT-116. Treated cells were compared with untreated controls. Cytotoxicity is visualized as survival index (SI) over the range of about 90% SI to about 0% SI in dependence on compound concentration.

[1] = system: MelJuSo Ub-YFP reporter cell line; experiment: Proteasome inhibition in reporter cell line, YFP accumulation in IncuCyte-FLR; assay type: cell-based; details: YFP accumulation measured for 48 hours; for MeJuSo-UB, IncuCyte lowest effective conc.: Table 1; for MeJuSo-UB, lowest effective conc.: Table 2
From the text: Cell culture. MCF7 cells are maintained in MEM/10% fetal calf serum. HCT-116 p53+/+, p53−/−, Bcl-2+/+, PUMA−/− and BAX−/− cells are maintained in McCoy's 5A modified medium/10% fetal calf serum. The HCT-116 p53+/+, p53−/−, PUMA−/− and BAX−/− are generated as described (25). The HCT-116 Bcl-2+/+ cell line was generated by transfecting parental HCT-116 p53+/+ cells with pCEP4 Bcl-2 (Addgene plasmid 16461) (26) and isolating high expression clones. FaDu and LLC3 cells are maintained in DMEM high glucose medium supplemented with 10% fetal calf serum, Na pyruvate, Hepes and non-essential amino acids. 4T1.12B carcinoma cells are maintained in RPMI medium supplemented with 10% fetal calf serum. The proteasome reporter cell line MelJuSo Ub-YFP was generated as described (12). Cells were maintained in Dulbecco's Modified Eagle's Medium/10% fetal calf serum. […] The retinal epithelial cell line was generated as described (28). All cells are maintained at 37° C. in 5% CO2.
The compound of the invention induces proteasome inhibition. The reporter cell line MelJuSo Ub-YFP, which is engineered to accumulate yellow fluorescent protein (YFP) upon proteasome inhibition (12), was used for compound evaluation. The accumulation of YFP was measured for 48 hours in an IncuCyte-FLR system (Essen Bioscience, Essen, UK), which is an automated fluorescence microscope. Numbers of positive cells per field were used as a measure of proteasome inhibition.

[2] = Dissolution in 25% by weight Kolliphor HS15; assay type: physicochemical; details: 18 mg starting weight, 25% w/w Kolliphor HS15, ultrasound about 50° C., non-dissolved residue deducted
Experimental: Pharmaceutical composition E (solution). For intraperitoneal administration a 25% by weight Kolliphor HS15 stock solution was prepared by melting an entire container of Kolliphor HS15 (Sigma 42966) by warming to 60° C. and diluting with deionized water to 25% w/w. To compound #1570 (18.0 mg) in a 10 mL sample tube was added 10.0 mL of the stock solution and the tube vortexed, treated with ultrasound at about 50° C. for about 2 h, and occasionally heated to about 83° C. […] By the same procedure solutions of compounds #1546 and #1571 were prepared; these compounds were however not fully dissolved. The non-dissolved residue was weighed, and the weight deducted from the starting weight of compound (18 mg).

Row | SMILES | IC50 (HCT116; Table 1) [nM] | MeJuSo-UB, IncuCyte lowest effective conc. [1] [µM] | IC50 (HCT116; Table 2) [nM] | MeJuSo-UB, lowest effective conc. [1] [µM] | other results
1 | CN1CCC(=Cc2ccc(F)cc2)C(=O)C(=Cc2ccc([N+](=O)[O-])cc2)C1 [Compound 1587] | 3000 | 1 |  |  | 
2 | COc1ccc(/C=C2\CN(C)CC/C(=C\c3ccc(F)cc3)C2=O)cc1 [Compound 1577, (3E,5E)-5-[(4-fluorophenyl)methylidene]-3-[(4-methoxyphenyl)methylidene]-1-methylazepan-4-one] |  | 8 |  |  | IC50 (HCT116; Homo sapiens, HCT-116, Table 1): 4900 nM
3 | O=C1C(=Cc2ccc(Cl)cc2)CCN(C(=O)c2cccnc2)CC1=Cc1ccc(Cl)cc1 [Compound 1637] |  |  | 2100 | 2 | 
4 | O=C1C(=Cc2ccc(F)cc2)CCNCC1=Cc1ccc(F)cc1 [Compound 1561] | 1000 | 1 |  |  | 
5 | O=C1C(=Cc2ccc(C(F)(F)F)c(F)c2)CCNCC1=Cc1ccc(C(F)(F)F)c(F)c1 [Compound 1626] | 800 | 8 |  |  | 
6 | O=C1C(=Cc2ccc(F)c([N+](=O)[O-])c2)CCNCC1=Cc1ccc(F)c([N+](=O)[O-])c1 [Compound 1562] | 500 | 0.25 |  |  | 
7 | O=C1/C(=C/c2ccc(C(F)(F)F)cc2)CCN(C(=O)Cc2ccccn2)C/C1=C\c1ccc(C(F)(F)F)cc1 [Compound 1644] |  |  | 1400 | 1 | 
8 | O=C1C(=Cc2ccc([N+](=O)[O-])cc2)CCNCC1=Cc1ccc(F)cc1 [Compound 1596] | 2600 | 2 |  |  | 
9 | O=C1C(=Cc2ccc(Cl)cc2)CCN(C(=O)Cc2ccccc2)CC1=Cc1ccc(Cl)cc1 [Compound 1635] |  |  | 1400 | 2 | 
10 | O=C1C(=Cc2cc(F)cc(C(F)(F)F)c2)CCNCC1=Cc1cc(F)cc(C(F)(F)F)c1 [Compound 1611] | 1100 | 0.5 |  |  | 
11 | CC(=O)OCC(=O)N1CC/C(=C\c2ccc(Cl)c(C(F)(F)F)c2)C(=O)/C(=C/c2ccc(Cl)c(C(F)(F)F)c2)C1 [Compound 1656] |  |  | 700 | 0.5 | 
12 | CN1CCC(=Cc2ccc([N+](=O)[O-])cc2)C(=O)C(=Cc2ccc([N+](=O)[O-])cc2)C1 [Compound 1614] | 7400 | 8 |  |  | 
13 | CC(=O)N1CCC(=Cc2ccc(F)c([N+](=O)[O-])c2)C(=O)C(=Cc2ccc(F)c([N+](=O)[O-])c2)C1 [Compound 1571] |  |  | 900 | 0.25 | amount of compound contained in prepared solution (10 ml) [2]: 11.0 mg
14 | CC(=O)OCCC(=O)N1CCC(=Cc2ccc(Cl)c(F)c2)C(=O)C(=Cc2ccc(Cl)c(F)c2)C1 [Compound 1660] |  |  | 2400 | 2 | 
15 | CN1CCC(=Cc2cccc([N+](=O)[O-])c2)C(=O)C(=Cc2cccc([N+](=O)[O-])c2)C1 [Compound 1566] | 2300 | 0.5 |  |  | 
16 | O=C1C(=Cc2ccc(F)c(C(F)(F)F)c2)CCNCC1=Cc1ccc(F)c(C(F)(F)F)c1 [Compound 1622] | 800 | 0.5 |  |  | 
17 | CN1CCC(=Cc2ccc(F)c(C(F)(F)F)c2)C(=O)C(=Cc2ccc(F)c(C(F)(F)F)c2)C1 [Compound 1609] | 1400 | 1 |  |  | 
18 | CN1CCC(=Cc2cc(F)cc(C(F)(F)F)c2)C(=O)C(=Cc2cc(F)cc(C(F)(F)F)c2)C1 [Compound 1612] | 700 | 0.25 |  |  | 
19 | CN1CCC(=Cc2ccc([N+](=O)[O-])cc2)C(=O)C(=Cc2ccc(F)cc2)C1 [Compound 1593] | 2900 | 1 |  |  | 
20 | C=CC(=O)N1CCC(=Cc2ccc([N+](=O)[O-])cc2)C(=O)C(=Cc2ccc([N+](=O)[O-])cc2)C1 [Compound 1546] |  |  | 1200 | 2 | cytotoxicity relative to structurally corresponding compounds with a 6-membered ring moiety (HCT116; HCT-116, 72 hours, survival index, FIGS. 3b, 3d, 3f): more cytotoxic; amount of compound contained in prepared solution (10 ml) [2]: 8.5 mg
21 | O=C1C(=Cc2ccc([N+](=O)[O-])cc2)CCNCC1=Cc1ccc([N+](=O)[O-])cc1 [Compound 1613] | 25000 | 32 |  |  | 
22 | O=C1/C(=C/c2ccc(F)c([N+](=O)[O-])c2)CCN(C(=O)Cc2ccccn2)C/C1=C\c1ccc(F)c([N+](=O)[O-])c1 [Compound 1648] |  |  | 800 | 0.5 | 
23 | C=CC(=O)N1CCC(=Cc2cccc([N+](=O)[O-])c2)C(=O)C(=Cc2cccc([N+](=O)[O-])c2)C1 [Compound 1572] |  |  | 2500 | 0.5 | 
24 | O=C1C(=Cc2ccc([N+](=O)[O-])cc2)CCNCC1=Cc1ccc(Cl)cc1 [Compound 1591] | 900 | 0.5 |  |  | 
25 | CN1CCC(=Cc2ccc(F)cc2)C(=O)C(=Cc2ccc(Cl)cc2)C1 [Compound 1595] | 2300 | 1 |  |  | 
26 | CC(=O)OCC(=O)N1CC/C(=C\c2cc(F)c(F)c(F)c2)C(=O)/C(=C/c2cc(F)c(F)c(F)c2)C1 [Compound 1651] |  |  | 800 | 0.5 | 
